± gives the standard deviation of the averaged measurements.
Key:
[1] = compound: O=c1[nH]cc(F)c(=O)[nH]1 [FLUOROURACIL]; assay: area under dose-response curve of surviving fraction (unscaled, Aref=0) (surviving fraction x log10(nM)); higher = more resistant; conditions: exposure time: 5 days; dose range 0.5-1000 nM
How it was run: (§1)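 Tumour cell lines in 384-well plates were exposed to eight inhibitor concentrations, from 0.5 to 1000 nM, for five days, and viability was read by CellTiter-Glo luminescence in three screens per line. Signals were normalised to DMSO-only wells, and 3-parameter logistic regression in the drc R package fitted dose-response survival curves to the surviving fractions. Area under the curve is given as the unscaled activity area. That area is taken over log10 dose with Aref = 0.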

[2] = compound: CC[C@@H](C(=O)[C@@H](C)[C@@H](O)[C@H](C)[C@@H]1O[C@@H]([C@@H](CC)C(=O)O)CC[C@@H]1C)[C@H]1O[C@]2(C=C[C@@H](O)[C@]3(CC[C@@](C)([C@H]4CC[C@](O)(CC)[C@H](C)O4)O3)O2)[C@H](C)C[C@@H]1C [SALINOMYCIN]; assay: as above; conditions: exposure time: 5 days; dose range 0.5-1000 nM
How it was run: as §1

[3] = compound: COc1cccc2c1C(=O)c1c(O)c3c(c(O)c1C2=O)C[C@@](O)(C(=O)CO)C[C@@H]3O[C@H]1C[C@H](N)[C@H](O)[C@H](C)O1 [DOXORUBICIN]; assay: as above; conditions: exposure time: 5 days; dose range 0.5-1000 nM
How it was run: as §1

[4] = compound: CCN(CC)CCCCNc1ncc2cc(-c3cc(OC)cc(OC)c3)c(NC(=O)NC(C)(C)C)nc2n1; assay: as above; conditions: exposure time: 5 days; dose range 0.5-1000 nM
How it was run: as §1

[5] = compound: COc1ccc(C2=N[C@@H](c3ccc(Cl)cc3)[C@@H](c3ccc(Cl)cc3)N2C(=O)N2CCNC(=O)C2)c(OC(C)C)c1 [NUTLIN3]; assay: as above; conditions: exposure time: 5 days; dose range 0.5-1000 nM
How it was run: as §1

[6] = compound: CS(=O)(=O)CCNCc1ccc(-c2ccc3ncnc(Nc4ccc(OCc5cccc(F)c5)c(Cl)c4)c3c2)o1 [LAPATINIB]; assay: as above; conditions: exposure time: 5 days; dose range 0.5-1000 nM
How it was run: as §1

[7] = compound: CS(=O)(=O)c1ccc(C(=O)Nc2ccc(Cl)c(-c3ccccn3)c2)c(Cl)c1 [VISMODEGIB]; assay: as above; conditions: exposure time: 5 days; dose range 0.5-1000 nM
How it was run: as §1

[8] = compound: C=CCNC1=C2C[C@@H](C)C[C@H](OC)[C@H](O)[C@@H](C)/C=C(\C)[C@H](OC(N)=O)[C@@H](OC)/C=C\C=C(/C)C(=O)NC(=CC1=O)C2=O [17-AAG]; assay: as above; conditions: exposure time: 5 days; dose range 0.5-1000 nM
How it was run: as §1

[9] = compound: Nc1ncn([C@H]2C[C@H](O)[C@@H](CO)O2)c(=O)n1 [DECITABINE]; assay: as above; conditions: exposure time: 5 days; dose range 0.5-1000 nM
How it was run: as §1

[10] = compound: T1, CN1CC[C@H](c2c(O)cc(O)c3c(=O)cc(-c4ccccc4Cl)oc23)[C@H](O)C1 [FLAVOPIRIDOL]; assay: as above; conditions: exposure time: 5 days; dose range 0.5-1000 nM
How it was run: as §1

[11] = compound: T1, FLAVOPIRIDOL; assay: surviving fraction relative to DMSO-only wells; higher = less growth inhibition; conditions: exposure time: 5 days
How it was run: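 Log-phase tumour cells were seeded at 250–500 per well in 384-well plates and, from 24 hours after seeding, exposed continuously for five days to inhibitors at 0.5, 1, 5, 10, 50, 100, 500 and 1000 nM. Surviving fraction is CellTiter-Glo luminescence normalised to the median of DMSO-only wells. Luminescence was measured after 10 minutes at room temperature, and only lines screened three times with replicate Pearson r >0.7 and median Z' >0.3 were kept.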

[12] = compound: COc1cc2c(cc1O)CC[C@@H]1[C@@H]2CC[C@]2(C)[C@@H](O)CC[C@@H]12 [2-METHOXYESTRADIOL]; assay: area under dose-response curve of surviving fraction (unscaled, Aref=0) (surviving fraction x log10(nM)); higher = more resistant; conditions: exposure time: 5 days; dose range 0.5-1000 nM
How it was run: as §1

[13] = compound: CN(C)CC[C@H](CSc1ccccc1)Nc1ccc(S(=O)(=O)NC(=O)c2ccc(N3CCN(Cc4ccccc4-c4ccc(Cl)cc4)CC3)cc2)cc1[N+](=O)[O-] [ABT-737]; assay: as above; conditions: exposure time: 5 days; dose range 0.5-1000 nM
How it was run: as §1

| Test System | area under dose-response curve [1] | area under dose-response curve [2] | area under dose-response curve [3] | area under dose-response curve [4] | area under dose-response curve [5] | area under dose-response curve [6] | area under dose-response curve [7] | area under dose-response curve [8] | area under dose-response curve [9] | area under dose-response curve [10] | surviving fraction ([11]; 0.5 nM) | surviving fraction ([11]; 1 nM) | surviving fraction ([11]; 5 nM) | surviving fraction ([11]; 10 nM) | surviving fraction ([11]; 50 nM) | surviving fraction ([11]; 100 nM) | surviving fraction ([11]; 500 nM) | surviving fraction ([11]; 1000 nM) | area under dose-response curve [12] | area under dose-response curve [13] |
| --- | --- | --- | --- | --- | --- | --- | --- | --- | --- | --- | --- | --- | --- | --- | --- | --- | --- | --- | --- | --- |
| 22RV1 PROSTATE | 3.25 | 2.38 | 1.31 | 3.33 | 3.26 | 3.42 | 3.35 | 2.24 | 2.81 | 2.35 | 1.04 ± 0.12 | 0.928 ± 0.16 | 0.953 ± 0.11 | 0.893 ± 0.2 | 0.897 ± 0.11 | 0.405 ± 0.14 | 0.124 ± 0.11 | 0.118 ± 0.086 | – | – |
| 93VU HEADNECK | 3.04 | 2.79 | 2.39 | – | 3.56 | 2.8 | – | 2.32 | 3.07 | 2.13 | 1.04 ± 0.088 | 1.03 ± 0.012 | 1.19 ± 0.066 | 1.12 ± 0.11 | 0.82 ± 0.011 | 0.0713 ± 0.0035 | 0.0237 ± 0.0015 | 0.0217 ± 0.0015 | 3.08 | – |
| BT549 BREAST | 2.98 | 2.75 | 1.41 | – | 3.68 | 3.45 | 2.93 | 1.1 | 2.69 | 2.02 | 1.17 ± 0.052 | 1.13 ± 0.094 | 1.11 ± 0.07 | 0.994 ± 0.021 | 0.454 ± 0.035 | 0.074 ± 0.012 | 0.0343 ± 0.005 | 0.035 ± 0.007 | 3.02 | – |
| CADOES1 SOFT TISSUE | 3.05 | 2.37 | 1.99 | 3.03 | 2.81 | – | 3.17 | 2.76 | 2.23 | 1.8 | 0.844 ± 0.099 | 0.924 ± 0.062 | 0.843 ± 0.13 | 0.888 ± 0.082 | 0.332 ± 0.062 | 0.146 ± 0.054 | 0.0357 ± 0.0051 | 0.038 | 3.23 | 2.63 |
| HCC78 LUNG | 3.24 | 2.33 | 1.2 | 3.12 | 3.02 | 2.99 | 3.52 | 1.44 | 2.49 | 1.62 | 1.08 ± 0.18 | 0.94 ± 0.032 | 0.898 ± 0.11 | 0.809 ± 0.25 | 0.151 ± 0.032 | 0.0467 ± 0.0059 | 0.0207 ± 0.00058 | 0.02 | 2.57 | – |
| HCT15 LARGE INTESTINE | 2.73 | 2.74 | 2.07 | 3.28 | 3.38 | – | 3.26 | 1.85 | 3.19 | 2.01 | 1.06 ± 0.085 | 0.963 ± 0.12 | 0.991 ± 0.13 | 0.92 ± 0.12 | 0.45 ± 0.035 | 0.103 ± 0.013 | 0.0417 ± 0.0025 | 0.0417 ± 0.0015 | 2.65 | 3.46 |
| HT1080 SOFT TISSUE | 3.06 | 3.16 | 1.29 | 3.39 | 3.11 | 3.4 | 3.25 | 2.11 | 3.03 | 2.07 | 1.05 ± 0.027 | 1.05 ± 0.02 | 1.03 ± 0.029 | 1.016 ± 0.0044 | 0.4973 ± 0.0011 | 0.193 ± 0.024 | 0.061 ± 0.003 | 0.0633 ± 0.0021 | 3.11 | – |
| HUO3N1 BONE | 3.28 | 2.41 | 2 | 3.05 | 3.41 | 3.26 | – | 2.3 | – | 2.49 | 1.07 ± 0.016 | 1 ± 0.022 | 1.14 ± 0.033 | 1.12 ± 0.03 | 1.26 ± 0.052 | 0.929 ± 0.077 | 0.0483 ± 0.0011 | 0.039 ± 0.0061 | 3.2 | – |
| MDAMB453 BREAST | 3.14 | 3.04 | 2.24 | 3.28 | 3.54 | 3.21 | 3.16 | 1.3 | – | 2.12 | 1.039 ± 0.0056 | 1.03 ± 0.071 | 1.1 ± 0.083 | 1.01 ± 0.02 | 0.586 ± 0.056 | 0.134 ± 0.022 | 0.085 ± 0.017 | 0.074 ± 0.025 | 3.02 | 3.59 |
| MDAMB468 BREAST | 2.83 | 3.08 | 2.09 | 3.27 | 3.39 | – | 3.19 | 2.41 | 2.63 | 2.15 | 1.03 ± 0.031 | 0.967 ± 0.064 | 1.03 ± 0.045 | 0.991 ± 0.04 | 0.734 ± 0.061 | 0.15 ± 0.016 | 0.0447 ± 0.005 | 0.04 ± 0.0061 | 3.5 | 3.62 |
| NY BONE | – | 2.53 | 1.85 | 2.65 | 3.28 | 3.43 | 3.28 | 1.6 | 2.91 | 2.12 | 0.984 ± 0.015 | 0.977 ± 0.017 | 1.05 ± 0.027 | 1.01 ± 0.05 | 0.813 ± 0.071 | 0.0513 ± 0.01 | 0.025 ± 0.001 | 0.024 ± 0.001 | 2.83 | 3.42 |
| OS25HAL BONE | – | 2.57 | 1.87 | 3.27 | 3.29 | 3.47 | 3.29 | 2.56 | 3.53 | 2.25 | 1.01 ± 0.035 | 0.996 ± 0.058 | 1.12 ± 0.052 | 1.06 ± 0.021 | 1.1 ± 0.036 | 0.101 ± 0.015 | 0.048 ± 0.013 | 0.0443 ± 0.012 | 3.02 | 3.39 |
